{"source": "ChEMBL document CHEMBL3585307", "about": "“Cyclic Steroid Glycosides from the Starfish Echinaster luzonicus: Structures and Immunomodulatory Activities” (J Nat Prod, 2015)", "key": {"[1]": {"system": "RAW264.7", "assay": "Induction of NO production in mouse RAW264.7 cells after 24 hrs by FA-OMe fluorescent probe based/immunomodulatory activity assay", "type": "functional, cell-based"}, "[2]": {"system": "RAW264.7", "assay": "Cytotoxicity against mouse RAW264.7 cells assessed as cell viability at 0.001 to 50 uM after 48 hrs by MTT assay", "type": "cell-based", "conditions": "raw264.7, 48 h"}, "[3]": {"system": "RAW264.7", "assay": "Induction of reactive oxygen species generation in mouse RAW264.7 cells at 0.01 to 10 uM after 24 hrs by DCF-DA dye-based/immunomodulatory activity assay", "type": "functional, cell-based"}, "[4]": {"system": "RAW264.7", "assay": "Stimulation of lysosomal activity in mouse RAW264.7 cells at 10 uM after 24 hrs by acridine orange based/immunomodulatory activity assay", "type": "functional, cell-based"}, "[5]": {"system": "RAW264.7", "assay": "Stimulation of lysosomal activity in mouse RAW264.7 cells at 0.001 to 1 uM after 24 hrs by acridine orange based/immunomodulatory activity assay", "type": "functional, cell-based"}, "[6]": {"system": "RAW264.7", "assay": "Stimulation of lysosomal activity in mouse RAW264.7 cells after 24 hrs by acridine orange based/immunomodulatory activity assay", "type": "functional, cell-based"}, "[7]": {"system": "RAW264.7", "assay": "Stimulation of lysosomal activity in mouse RAW264.7 cells at 0.1 uM after 24 hrs by acridine orange based/immunomodulatory activity assay relative to 1 ug/ml LPS stimulation", "type": "functional, cell-based"}, "[8]": {"system": "RAW264.7", "assay": "Induction of reactive oxygen species generation in mouse RAW264.7 cells at 0.01 uM after 24 hrs by DCF-DA dye-based/immunomodulatory activity assay relative to control", "type": "functional"}, "[9]": {"system": "RAW264.7", "assay": "Stimulation of lysosomal activity in mouse RAW264.7 cells at 0.1 uM after 24 hrs by acridine orange based/immunomodulatory activity assay", "type": "functional"}, "[10]": {"system": "RAW264.7", "assay": "Induction of NO production in mouse RAW264.7 cells at 0.01 uM after 24 hrs by FA-OMe fluorescent probe based/immunomodulatory activity assay", "type": "functional"}, "[11]": {"system": "RAW264.7", "assay": "Induction of NO production in mouse RAW264.7 cells at 0.1 uM after 24 hrs by FA-OMe fluorescent probe based/immunomodulatory activity assay", "type": "functional"}}, "note": "The source made the active and inactive calls. The calls are words filed in the database; no cut-off is given here.", "data": [{"smiles": "CC(C)CC(=O)C[C@@H](C)[C@H]1CC[C@H]2C3=C[C@H]4OC[C@H]5O[C@@H](O[C@H]6[C@@H](OC[C@H](O)[C@@H]6O)O[C@H]6[C@H](O[C@H]7CC[C@@](C)([C@@H]4C7)[C@H]3CC[C@]12C)O[C@H](C(=O)O)[C@@H](O)[C@@H]6O)[C@H](O)[C@@H](O)[C@@H]5O", "values": [{"measurement": "Activity", "setting": "[1]", "value": "inactive"}, {"measurement": "Activity", "setting": "[2]", "value": "Non-toxic"}, {"measurement": "Activity", "setting": "[3]", "value": "inactive"}]}, {"smiles": "CC(C)CC(=O)C[C@@H](C)[C@H]1CC[C@H]2C3=C[C@H]4OC[C@H]5O[C@@H](O[C@H]6[C@@H](OC[C@H](O)[C@@H]6O)O[C@H]6[C@H](O[C@H]7CC[C@@](C)([C@@H]4C7)[C@H]3CC[C@]12C)O[C@H](C(=O)O)[C@@H](O)[C@@H]6O)[C@H](O)[C@@H](O)[C@H]5O", "values": [{"measurement": "Activity", "setting": "[1]", "value": "Dose-dependent effect"}, {"measurement": "Activity", "setting": "[4]", "value": "inactive"}, {"measurement": "Activity", "setting": "[5]", "value": "Active"}, {"measurement": "Activity", "setting": "[6]", "value": "Dose-dependent effect"}, {"measurement": "Activity", "setting": "[2]", "value": "Non-toxic"}, {"measurement": "Activity", "setting": "[7]", "value": "Active"}, {"measurement": "fold change (FC)", "setting": "[8]", "value": 2}, {"measurement": "Activity", "setting": "[9]", "value": 50, "unit": "%"}, {"measurement": "Activity", "setting": "[3]", "value": "Active"}, {"measurement": "Activity", "setting": "[10]", "value": 15, "unit": "%"}, {"measurement": "Activity", "setting": "[11]", "value": 15, "unit": "%"}]}]}
